In patent publication US20220194938A1, “NOVEL COMPOUNDS AND PHARMACEUTICAL COMPOSITIONS THEREOF FOR THE TREATMENT OF INFLAMMATORY DISORDERS” (GALAPAGOS NV, priority 2019, published 2022):

Assays:
[1] = target: T1, human IRAK-4 (Homo sapiens, UniProt Q9NWZ3); assay: Phosphorylation IC50 determination for human IRAK-4 (ADP-Glo kinase assay); settings: human IRAK-4, RIP140 substrate, Km ATP; read-out: IRAK4 ADPglo biochemical assay IC50
T1 construct: purchased Carna Biosciences 09 145
T1 sequence (Q9NWZ3 1-460): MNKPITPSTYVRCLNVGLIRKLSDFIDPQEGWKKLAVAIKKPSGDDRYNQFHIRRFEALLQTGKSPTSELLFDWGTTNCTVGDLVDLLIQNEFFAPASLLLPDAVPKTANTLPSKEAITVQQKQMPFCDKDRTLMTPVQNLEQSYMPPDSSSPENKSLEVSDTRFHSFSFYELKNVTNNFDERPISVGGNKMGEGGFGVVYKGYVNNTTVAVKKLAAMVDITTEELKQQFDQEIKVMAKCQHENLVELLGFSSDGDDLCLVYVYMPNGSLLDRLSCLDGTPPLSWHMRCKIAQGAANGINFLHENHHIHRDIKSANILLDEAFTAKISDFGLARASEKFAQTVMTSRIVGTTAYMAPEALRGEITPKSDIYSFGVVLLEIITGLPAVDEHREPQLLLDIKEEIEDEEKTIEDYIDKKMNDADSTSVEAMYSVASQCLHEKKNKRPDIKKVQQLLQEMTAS
Method: 3.1. Phosphorylation IC50 Determination for Human IRAK-4
The phosphorylation of the substrate RIP140 (SEQ ID1) by IRAK4 at Km ATP was detected with the ADP-Glo Kinase Assay (Promega, Cat #V9103), a luminescent kinase assay which measures the ADP formed from a kinase reaction. (Zegzouti et al. 2009) In a second step the kinase reaction was terminated and all the remaining ATP was depleted. In a final step the ADP was converted into ATP and this newly synthesized ATP was measured by using a luciferase/luciferin reaction with a luminescent reader. The luminescent signal positively correlated with kinase activity, in particular kinase inhibition giving a decrease of the luminescent signal.
For the semi-automated assay, the positive control (100% inhibition) was prepared by diluting 10 mM staurosporine stock mixture (20 μL) in water (3.8 mL) and DMSO (180 μL), thus resulting in a […] staurosporine solution at 1% DMSO (final concentration after further dilution in the kinase reaction).
For the automated assay, no pre-dilution of the 10 mM staurosporine stock was made. 10 mM staurosporine was spotted directly in the assay plate using acoustic dispensing and complemented with DMSO to result in a similar final concentration as mentioned above.
For the semi-automated assay, the negative control (0% inhibition) was prepared by mixing water (3.8 mL) and DMSO (200 μL) resulting in a final concentration of 1% DMSO after further dilution in the kinase reaction. For the automated assay no pre-dilution of DMSO was done. 100% DMSO was spotted directly on the assay plate.
The assay buffer solution was prepared at a concentration corresponding to 5 fold the final (most diluted) assay concentration by mixing a solution of 125 mM TRIS pH 7.5+0.05% Triton X-100+2.5 mM EGTA (5.27 mL) with 1M mgCl2 (72 μL), 1M DTT (57.6 μL), and 200 mM MnCl2 (360 μL).
For example, for the semi-automated method, the enzyme-substrate mixture was prepared by mixing water (3999 μL), assay buffer solution (1380 μL), 1 mM RIP140 (138 μL—SEQ ID1), and 200 ng/mL IRAK 4 (3.45 μL Carna Biosciences, 09 145).
For semi-automated method, the ATP mixture was prepared at a concentration corresponding to 2.5 fold the final (most diluted) assay concentration of the semi-automated method and 1.5 fold the final (most diluted) assay concentration of the automated method. For example, for the semi-automated method, the ATP mixture was prepared by mixing water (4126 μL), assay buffer solution (1380 μL), and 10 mM ATP (13.80 μL).
The assay was performed either in a semi-automated or fully automated manner. The assay volume and the incubation time of the ADP detection were different accordingly the method used.
3.1.3.1. Semi-Automated Assay
The compounds were prepared as a serial dilution of 10 point dose responses with 1/5 dilution steps in 100% DMSO starting from 2 mM highest concentration, diluted 1/20 in water. 1 μL was transferred dry to the assay plates.
On each assay plate 32 wells of each control (positive & negative) were added, followed by 2 μL enzyme-substrate mixture.
The reaction was started by adding 2 μL diluted ATP (final concentration Km ATP) on the assay plates. Plates were centrifuged for a few seconds at 1000 rpm followed by an incubation at r.t. for 120 min.
The reactions were stopped and the unconsumed ATP was depleted by adding 5 μL ADP-glo Reagent (Promega, Cat #V9103) to the reaction. The plates were quickly centrifuged at 1000 rpm and incubated at r.t. for 40 min corresponding to full ATP depletion.
The ADP was converted back to ATP and luciferase and luciferin were introduced to detect ATP by adding 10 μL kinase detection reagent (Promega, Cat #V9103) to the reaction. The plates were centrifuged for a few seconds at 1000 rpm and incubated at r.t. for a further 30 min.
Luminescent read out was performed on an Envision luminescent reader (Perkin Elmer). […]

[2] = test system: pooled cryopreserved hepatocytes; assay: Metabolic stability in hepatocytes (mouse); format: in vitro ADME; settings: 1 μM test compound
Method: (§1) 4.6. Metabolic Stability in Hepatocytes
(§2) The aim of this assay is to determine the metabolic stability of the compound in hepatocytes (cryopreserved) of different species. Low hepatocyte stability may result in the formation of unwanted metabolites, high clearance, and therefore is not desirable.
(§3) The decrease in parent was assessed by measuring the percentage remaining by LC-MS/MS analysis.
(§4) A 10 mM stock solution of test compound in DMSO was first diluted in DMSO to 3 mM, and then in modified Krebs-Henseleit buffer (Sigma, K3753) to 5 μM. This compound dilution was added to a suspension of pooled cryopreserved hepatocytes (BioreclamationIVT) at 37° C. under gentle shaking.
(§5) Final reaction conditions were: 1 μM of test compound, 0.03% DMSO, 0.5 million viable hepatocytes/mL, and 75 μL incubation volume.
(§6) Testosterone (1 μM) and 7-hydroxycoumarin (1 μM) were used, respectively as phase I and phase II metabolic reaction controls.
(§7) After 0, 10, 20, 45, 90, 120 and 180 min of incubation, the reaction was terminated with 225 μL of MeCN:MeOH (2:1) containing 100 ng/mL of diclofenac as analytical internal standard. Samples were mixed, centrifuged and the supernatant analyzed by LC-MS/MS.
(§8) The instrument responses (ratios of test compound and internal standard peak areas) were referenced to the zero time point samples (considered as 100%) in order to determine the percentage of compound remaining.
(§9) Plots of percentage compound remaining are used to determine the intrinsic clearance in the hepatocyte incubations using the following equations:
(§10) Scaled Clint[L/h/kg]=Clint[μL/min/10^6 cells]*#(10^6) cells/g liver*60*(1/10^6) Scaled Clint unbound [L/h/kg]=Clint [L/h/kg]/Fu,inc where: fu,inc equals hepatocyte binding, derived from microsomal binding (fu,mic) by following equation: […]

[3] = test system: pooled cryopreserved hepatocytes; assay: Metabolic stability in hepatocytes (human); format: in vitro ADME; settings: 1 μM test compound
Method: as §1, §2, §3, §4, §5, §6, §7, §8, §9, §10

| IC50 [1] [µM] | Mouse (Perc. remaining at 90 min) [2] [%] | Human (Perc. remaining at 90 min) [3] [%] | SMILES |
| --- | --- | --- | --- |
| 0.005 to 0.01 | – | – | COc1cc2nc(CCC(C)(C)O)cn2cc1NC(=O)c1cccnc1O [Compound 9, 2-hydroxy-N-[2-(3-hydroxy-3-methyl-butyl)-7-methoxy-imidazo[1,2-a]pyridin-6-yl]pyridine-3-carboxamide] |
| > 0.05 | – | – | COc1cc2nc(CCC(C)(C)O)cn2cc1NC(=O)c1nc(C)ccc1Cl [Compound 11, 3-chloro-N-[2-(3-hydroxy-3-methyl-butyl)-7-methoxy-imidazo[1,2-a]pyridin-6-yl]-6-methyl-pyridine-2-carboxamide] |
| 0.005 to 0.01 | 23.5 | 89.95 | COc1cc2nc(CCC(C)(C)O)cn2cc1NC(=O)c1cccc(CC#N)n1 [Compound 14, 6-(cyanomethyl)-N-[2-(3-hydroxy-3-methyl-butyl)-7-methoxy-imidazo[1,2-a]pyridin-6-yl]pyridine-2-carboxamide] |
| 0.0001 to 0.005 | 60.05 | 48.5 | COc1cc2nc(CCC(C)(C)O)cn2cc1NC(=O)c1ccc(F)c(C)n1 [Compound 15, 5-fluoro-N-[2-(3-hydroxy-3-methyl-butyl)-7-methoxy-imidazo[1,2-a]pyridin-6-yl]-6-methyl-pyridine-2-carboxamide] |
| 0.01 to 0.05 | 74.55 | 29.2 | COc1cc2nc(CCC(C)(C)O)cn2cc1NC(=O)c1cncc(C)n1 [Compound 16, N-[2-(3-hydroxy-3-methyl-butyl)-7-methoxy-imidazo[1,2-a]pyridin-6-yl]-6-methyl-pyrazine-2-carboxamide] |
| 0.01 to 0.05 | – | – | COc1cc2nc(CCC(C)(C)O)cn2cc1NC(=O)c1cncc(C(F)(F)F)n1 [Compound 17, N-[2-(3-hydroxy-3-methyl-butyl)-7-methoxy-imidazo[1,2-a]pyridin-6-yl]-6-(trifluoromethyl)pyrazine-2-carboxamide] |
| 0.0001 to 0.005 | 34.9 | 71.95 | COc1cc2nc(CCC(C)(C)O)cn2cc1NC(=O)c1cccc(CO)n1 [Compound 21, 6-(hydroxymethyl)-N-[2-(3-hydroxy-3-methyl-butyl)-7-methoxy-imidazo[1,2-a]pyridin-6-yl]pyridine-2-carboxamide] |
| 0.01 to 0.05 | 74.1 | 99.75 | COc1cc2nc(CCC(C)(C)O)cn2cc1NC(=O)c1cccn(C(C)C)c1=O [Compound 22, N-[2-(3-hydroxy-3-methyl-butyl)-7-methoxy-imidazo[1,2-a]pyridin-6-yl]-1-isopropyl-2-oxo-pyridine-3-carboxamide] |
| 0.005 to 0.01 | – | 106 | COc1cc2nc(CCS(C)(=O)=O)cn2cc1NC(=O)c1cccn(C(F)F)c1=O [Compound 26, 1-(difluoromethyl)-N-[7-methoxy-2-(2-methylsulfonylethyl)imidazo[1,2-a]pyridin-6-yl]-2-oxo-pyridine-3-carboxamide] |
| 0.01 to 0.05 | – | – | CNC(=O)c1cc2nc(CCS(C)(=O)=O)cn2cc1NC(=O)c1cccc(C(F)(F)F)n1 [Compound 30, N-methyl-2-(2-methylsulfonylethyl)-6-[[6-(trifluoromethyl)pyridine-2-carbonyl]amino]imidazo[1,2-a]pyridine-7-carboxamide] |
| 0.01 to 0.05 | – | – | COc1cc2nc(CCC(C)(C)O)cn2cc1NC(=O)c1ccc(F)c(Cl)n1 [Compound 32, 6-chloro-5-fluoro-N-[2-(3-hydroxy-3-methylbutyl)-7-methoxyimidazo[1,2-a]pyridin-6-yl]pyridine-2-carboxamide] |
| 0.0001 to 0.005 | – | – | CC(C)(O)CCc1cn2cc(NC(=O)c3cccc(C(F)(F)F)n3)c(Br)cc2n1 [Compound 36, N-[7-bromo-2-(3-hydroxy-3-methyl-butyl)imidazo[1,2-a]pyridin-6-yl]-6-(trifluoromethyl)pyridine-2-carboxamide] |
| 0.005 to 0.01 | – | – | CN1CC(NC(=O)c2cc3nc(CCC(C)(C)O)cn3cc2NC(=O)c2cccc(C(F)(F)F)n2)C1 [Compound 43, 2-(3-hydroxy-3-methylbutyl)-N-(1-methylazetidin-3-yl)-6-(6-(trifluoromethyl)picolinamido)imidazo[1,2-a]pyridine-7-carboxamide] |
| 0.005 to 0.01 | – | – | CC(C)(O)CCc1cn2cc(NC(=O)c3cccc(C(F)(F)F)n3)c(C(=O)NC3COC3)cc2n1 [Compound 44, 2-(3-hydroxy-3-methylbutyl)-N-(oxetan-3-yl)-6-(6-(trifluoromethyl)picolinamido)imidazo[1,2-a]pyridine-7-carboxamide] |
| 0.005 to 0.01 | – | – | CC(C)(O)CCc1cn2cc(NC(=O)c3cccc(C(F)(F)F)n3)c(C(=O)NCC3CC3)cc2n1 [Compound 45, N-(cyclopropylmethyl)-2-(3-hydroxy-3-methylbutyl)-6-(6-(trifluoromethyl)picolinamido)imidazo[1,2-a]pyridine-7-carboxamide] |
| 0.005 to 0.01 | – | – | CC(C)(O)CCc1cn2cc(NC(=O)c3cccc(C(F)(F)F)n3)c(C(=O)NC3(C)CC3)cc2n1 [Compound 46, 2-(3-hydroxy-3-methylbutyl)-N-(1-methylcyclopropyl)-6-(6-(trifluoromethyl)picolinamido)imidazo[1,2-a]pyridine-7-carboxamide] |
| 0.005 to 0.01 | – | – | CC(C)(O)CCc1cn2cc(NC(=O)c3cccc(C(F)(F)F)n3)c(C(=O)NC3CCOC3)cc2n1 (stereo not shown) [Compound 47, 2-(3-hydroxy-3-methylbutyl)-N-(tetrahydrofuran-3-yl)-6-(6-(trifluoromethyl)picolinamido)imidazo[1,2-a]pyridine-7-carboxamide] |
